For assay [1], the system named is STING activation (IFN-β production in THP-1 cells). The assay can be described thus: Human IFN-β production inhibition test by cGAMP stimulation in THP-1 cells. In kind it is cell-based. More on the design: IFN-β bioinhibitory activity: scale not given here. The note with it: 2'3'-cGAMP transfection, 18 hours, IFN-β ELISA; for IC50: Homo sapiens, read-out: IFN-β bioinhibitory activity. How it is done:
Human IFN-β production inhibition test by cGAMP stimulation
The inhibitory activity of test compounds against STING activation was evaluated by measuring the amount of IFN-β produced when human monocytic cell line THP-1 cells were stimulated with the endogenous ligand cGAMP.
After seeding THP-1 cells (ATCC) in a 96-well plate, PMA (Santa Cruz Biotechnology) adjusted to a concentration of 100 nM after addition was added, and incubated at 37° C. in a 5% CO2 incubator. It was cultured overnight (RPMI1640 medium containing 10% FBS, 50 U/mL penicillin/50 μg/mL streptomycin). A test compound solution adjusted to a final concentration of 0.001 to 1 μM was added to each well of this plate and cultured for 1 hour in a CO2 incubator (DMSO final concentration 0.1%). 0.12 μg/well of 2′3′-cGAMP (Invivogen, #tlrl-nacga23) was introduced into the cells by transfection using Lipofectamine2000 (Invitrogen) and cultured in a CO incubator for an additional 18 hours. After collecting the culture supernatant from each well, the amount of human IFN-β produced in the culture supernatant was measured by ELISA using R&D human IFN-β Duoset (R&D Systems).
Assuming that the human IFN-β production amount of the test compound-free and cGAMP-added group is 100%, and the human IFN-β production amount of the test compound-free and cGAMP-free group is 0%, the IC50 value was determined by regression analysis of the inhibitory rate determined from the amount of human IFN-β production at each compound concentration and the concentration of the test compound (logarithm).
(ELISA stands for enzyme-linked immunosorbent assay.)

A further assay addresses T1, human STING (hSTING) (Homo sapiens, UniProt Q86WV6).
T1 construct: host or cells: HEK-Blue ISG cells (HEK293-derived SEAP reporter line)
The assay can be described thus: Inhibition test of intracellular human STING (hSTING) pathway using SEAP reporter cells (HEK-Blue ISG), stimulation with Compound 3. In kind it is cell-based. More on the design: hSTING inhibitory activity: scale not given here. The note with it: Compound 3 10 nM stimulation, 21 hours. The method, boiled down: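 IC50 derived by regressing inhibition rate against log compound concentration (0.1 to 10 μM final, added 1 h before agonist), with 0% and 100% set by wells without and with 10 nM Compound 3. SEAP colour reaction read after 21 h stimulation of HEK-Blue ISG reporter cells.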

The structures appear in SMILES notation. Where a name gives a salt, the structure may show the parent alone. Where only a bound is given, the exact number is not on record here.

T1 sequence (Q86WV6 whole entry H232R): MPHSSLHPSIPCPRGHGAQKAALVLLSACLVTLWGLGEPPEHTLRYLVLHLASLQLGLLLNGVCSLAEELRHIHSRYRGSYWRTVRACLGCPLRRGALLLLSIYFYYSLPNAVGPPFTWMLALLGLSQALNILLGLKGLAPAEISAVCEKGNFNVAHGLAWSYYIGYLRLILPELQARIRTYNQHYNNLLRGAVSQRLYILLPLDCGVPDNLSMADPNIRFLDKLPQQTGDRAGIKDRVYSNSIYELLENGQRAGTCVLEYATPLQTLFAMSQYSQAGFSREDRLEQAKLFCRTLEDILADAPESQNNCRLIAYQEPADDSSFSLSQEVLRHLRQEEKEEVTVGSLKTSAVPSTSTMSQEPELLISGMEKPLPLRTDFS

On to `COc1ccc2[nH]cc(Nc3nc4cc(Oc5ccccc5)ccc4[nH]3)c2n1` [Embodiment 36, N-(5-methoxy-1H-pyrrolo[3,2-b]pyridin-3-yl)-5-phenoxy-1H-benzo[d]imidazol-2-amine], for which the IFN-β bioinhibitory activity entry in assay [1] was “* *”. Moreover, the hSTING inhibitory activity result at human STING (hSTING) is listed as “* *”.

Take `[2H]C([2H])([2H])n1c(Nc2c[nH]c3ccc(Cl)cc23)nc2cc(C(F)(F)F)ccc21` [Embodiment 221, N-(5-Chloro-1H-indol-3-yl)-1-(methyl-d3)-5-(trifluoromethyl)-1H-benzo[d]imidazol-2-mine]: the IFN-β bioinhibitory activity entry in assay [1] is reported as “* *”. Also, on human STING (hSTING), the hSTING inhibitory activity entry was “* * *”.

For the compound `Clc1cc(Cl)c2nc(Nc3c[nH]c4ccc(Cl)nc34)[nH]c2c1` [Embodiment 84, 4,6-dichloro-N-(5-chloro-1H-pyrrolo[3,2-b]pyridin-3-yl)-1H-benzo[d]imidazol-2-amine], the IC50 in assay [1] is not below 1000 nM. The hSTING inhibitory activity entry on human STING (hSTING) is “* *”.

Turning to `C=Cc1ccc2[nH]cc(Nc3nc4ccc(Oc5ccc(F)cc5)cc4n3C)c2n1` [Embodiment 191], in assay [1], the IC50 is 100 to 1000 nM. Further, the hSTING inhibitory activity result at human STING (hSTING) is “* *”.

On to `CC(C)n1c(Nc2c[nH]c3ccc(Cl)nc23)nc2cc(Oc3ccccc3)ccc21` [Embodiment 116, N-(5-Chloro-1H-pyrrolo[3,2-b]pyridin-3-yl)-1-isopropyl-5-phenoxy-1H-benzo[d]imidazol-2-amine], for which the IC50 in assay [1] was 100 to 1000 nM. Further, the hSTING inhibitory activity result at human STING (hSTING) is “* * *”.

On to `FC(F)(F)c1ccc2c(c1)nc(Nc1c[nH]c3ccc(Cl)cc13)n2C1COC1` [Embodiment 226, N-(5-Chloro-1H-indol-3-yl)-1-(oxetan-3-yl)-5-(trifluoromethyl)-1H-benzo[d]imidazol-2-amine], for which the IFN-β bioinhibitory activity result in assay [1] is recorded as “* *”. Moreover, the hSTING inhibitory activity result on human STING (hSTING) is “* *”.

Consider `C#CCn1c(Nc2c[nH]c3ccc(Cl)cc23)nc2cc(C(F)(F)F)cc(F)c21` [Embodiment 241, N-(5-Chloro-1H-indol-3-yl)-7-fluoro-1-(prop-2-yn-1-yl)-5-(trifluoromethyl)-1H-benzo[d] imidazole-2-amine], for which the IFN-β bioinhibitory activity result in assay [1] is listed as “* *”. In addition, the hSTING inhibitory activity result on human STING (hSTING) is given as “* * *”.

On to `Clc1ccc2[nH]cc(Nc3nc4cc(C5CCOCC5)ccc4[nH]3)c2n1` [Embodiment 112, N-(5-chloro-1H-pyrrolo[3,2-b]pyridin-3-yl)-5-(tetrahydro-2H-pyran-4-yl)-1H-benzo[d]imidazole-2-amine], for which the IC50 in assay [1] is 100 to 1000 nM. The hSTING inhibitory activity entry on human STING (hSTING) was “* *”.

As for `FC(F)(F)Oc1ccc2c(c1)nc(Nc1c[nH]c3ccc(Cl)cc13)n2C1CC1` [Embodiment 231, N-(5-Chloro-1H-indol-3-yl)-1-cyclopropyl-5-(trifluoromethoxy)-1H-benzo[d]imidazol-2-amine], the IFN-β bioinhibitory activity result in assay [1] is on record as “* *”. Besides, the hSTING inhibitory activity entry at human STING (hSTING) is on record as “* * *”.

Turning to `CCCn1c(Nc2c[nH]c3ccc(Cl)cc23)nc2cc(OC(F)(F)F)ccc21` [Embodiment 244, N-(5-Chloro-1H-indol-3-yl)-1-propyl-5-(trifluoromethoxy)-1H-benzo [d]imidazol-2-amine], the IFN-β bioinhibitory activity entry in assay [1] is listed as “* *”. Further, at human STING (hSTING), the hSTING inhibitory activity result is reported as “* * *”.

On to `Cn1c(Nc2c[nH]c3ccc(Cl)cc23)nc2ccc(Oc3ccc(F)cc3)cc21` [Embodiment 195, N-(5-Chloro-1H-indol-3-yl)-6-(4-fluorophenoxy)-1-methyl-1H-benzo[d]imidazol-2-amine], for which the IFN-β bioinhibitory activity result in assay [1] is reported as “* *”. Moreover, at human STING (hSTING), the hSTING inhibitory activity entry was “* * *”.

Regarding `Fc1cc(C(F)(F)F)cc2nc(Nc3c[nH]c4ccc(Cl)cc34)n(C3CC3)c12` [Embodiment 233, N-(5-Chloro-1H-indol-3-yl)-1-cyclopropyl-7-fluoro-5-(trifluoromethyl)-1H-benzo[d]imidazol-2-amine], in assay [1], the IFN-β bioinhibitory activity result was “* *”. For the same compound, at human STING (hSTING), the hSTING inhibitory activity entry is “* * *”.

With `Cc1ccc2[nH]cc(Nc3nc4cc(Oc5ccccc5)ccc4[nH]3)c2n1` [Embodiment 53, N-(5-methyl-1H-pyrrolo[3,2-b]pyridin-3-yl)-5-phenoxy-1H-benzo[d]imidazol-2-amine], the IC50 in assay [1] is not below 1000 nM. Moreover, the hSTING inhibitory activity result at human STING (hSTING) was “* *”.

As to `Fc1cccc2[nH]c(Nc3c[nH]c4ccc(Br)cc34)nc12` [Example 25, N-(5-bromo-1H-indol-3-yl)-4-fluoro-1H-benzo[d]imidazol-2-amine], the IFN-β bioinhibitory activity entry in assay [1] is listed as “* *”. The hSTING inhibitory activity entry at human STING (hSTING) is given as “* *”.

In the case of `Cn1c(Nc2c[nH]c3ccc(Cl)cc23)nc2cc(C(F)(F)F)c(F)cc21` [Embodiment 254, N-(5-Chloro-1H-indol-3-yl)-6-fluoro-1-methyl-5-(trifluoromethyl)-1H-benzo[d]imidazol-2-amine], in assay [1], the IFN-β bioinhibitory activity entry is “* *”. The hSTING inhibitory activity result at human STING (hSTING) is “* * *”.

In the case of `COc1ccc2[nH]c(Nc3c[nH]c4ccc(Br)cc34)nc2c1` [Example 6, N-(5-bromo-1H-indol-3-yl)-5-methoxy-1H-benzo[d]imidazol-2-amine], the IC50 in assay [1] was 100 to 1000 nM. For the same compound, the hSTING inhibitory activity entry at human STING (hSTING) is given as “* *”.

With `FC(F)(F)c1ccc2c(c1)nc(Nc1c[nH]c3ccc(Br)cc13)n2C1CC1` [Embodiment 224, N-(5-bromo-1H-indol-3-yl)-1-cyclopropyl-5-(trifluoromethyl)-1H-benzo[d]imidazol-2-amine], the IFN-β bioinhibitory activity entry in assay [1] is “* *”. In addition, at human STING (hSTING), the hSTING inhibitory activity entry is listed as “* * *”.

For the compound `Clc1ccc2[nH]cc(Nc3nc4cc(I)ccc4[nH]3)c2n1` [Embodiment 124, N-(5-Chloro-1H-pyrrolo[3,2-b]pyridin-3-yl)-5-iodo-1H-benzo[d] imidazol-2-amine], the IFN-β bioinhibitory activity entry in assay [1] was “* * *”. In addition, on human STING (hSTING), the hSTING inhibitory activity result is “* *”.

As for `FC(F)(F)c1ccc2[nH]c(Nc3c[nH]c4ccc(Br)nc34)nc2c1` [Example 31, N-(5-bromo-1H-pyrrolo[3,2-b]pyridin-3-yl)-5-(trifluoromethyl)-1H-benzo[d]imidazol-2-amine], the IFN-β bioinhibitory activity entry in assay [1] is “* * *”. At human STING (hSTING), the hSTING inhibitory activity entry is “* *”.

Regarding `Clc1ccnc2c(Nc3nc4cc(Oc5ccccc5)ccc4[nH]3)c[nH]c12` [Embodiment 38, N-(7-chloro-1H-pyrrolo[3,2-b]pyridin-3-yl)-5-phenoxy-1H-benzo[d]imidazol-2-amine], in assay [1], the IC50 is not below 1000 nM. Further, at human STING (hSTING), the hSTING inhibitory activity entry was “* *”.

On to `Fc1cc2nc(Nc3c[nH]c4ccc(Cl)nc34)[nH]c2cc1C(F)(F)F` [Embodiment 160, N-(5-Chloro-1H-pyrrolo[3,2-b]pyridin-3-yl)-5-fluoro-6-(trifluoromethyl)-1H-benzo[d]imidazol-2-amine], for which the IC50 in assay [1] is 100 to 1000 nM. Further, the hSTING inhibitory activity result on human STING (hSTING) is “* * *”.

With `Clc1cc2nc(Nc3c[nH]c4ccc(Br)nc34)[nH]c2cc1Cl` [Embodiment 88, N-(5-bromo-1H-pyrrolo[3,2-b]pyridin-3-yl)-5,6-dichloro-1H-benzo[d]imidazol-2-amine], in assay [1], the IC50 was 100 to 1000 nM. Moreover, at human STING (hSTING), the hSTING inhibitory activity entry was “* * *”.

Turning to `Cn1c(Nc2c[nH]c3ccc(Cl)cc23)nc2cc(F)ccc21` [Embodiment 185, N-(5-Chloro-1H-indol-3-yl)-5-fluoro-1-methyl-1H-benzo[d]imidazol-2-amine formate], the IFN-β bioinhibitory activity entry in assay [1] is listed as “* * *”. On human STING (hSTING), the hSTING inhibitory activity entry is given as “* *”.

Consider `C#CCn1c(Nc2c[nH]c3ccc(Cl)cc23)nc2cc(C(F)(F)F)ccc21` [Embodiment 214, N-(5-Chloro-1H-indol-3-yl)-1-(pro-2-yl)-5-(trifluoromethyl)-1H-benzo[d]imidazol-2-amine], for which, in assay [1], the IFN-β bioinhibitory activity result was “* * *”. Also, the hSTING inhibitory activity entry at human STING (hSTING) was “* * *”.

With `FC(F)(F)c1ccc2c(c1)nc(Nc1c[nH]c3ccc(Cl)cc13)n2CC1CC1` [Embodiment 215, N-(5-Chloro-1H-indol-3-yl)-1-(cyclopropylmethyl)-5-(trifluoromethyl)-1H-benzo[d] imidazol-2-amine], the IFN-β bioinhibitory activity result in assay [1] is recorded as “* *”. In addition, at human STING (hSTING), the hSTING inhibitory activity entry is listed as “* * *”.

Take `Cn1c(Nc2c[nH]c3ccc(Cl)cc23)nc2cc(C(F)(F)F)ccc21` [Embodiment 56, N-(5-chloro-1H-indol-3-yl)-1-methyl-5-(trifluoromethyl)-1H-benzo[d]imidazol-2-amine]: the IFN-β bioinhibitory activity entry in assay [1] is given as “* * *”. Moreover, at human STING (hSTING), the hSTING inhibitory activity result was “* * *”.

Take `CC(C)c1ccc2[nH]c(Nc3c[nH]c4ccc(Cl)nc34)nc2c1` [Embodiment 104, N-(5-Chloro-1H-pyrrolo[3,2-b]pyridin-3-yl)-5-isopropyl-1H-benzo[d]imidazol-2-amine]: in assay [1], the IFN-β bioinhibitory activity result is reported as “* *”. Moreover, the hSTING inhibitory activity result at human STING (hSTING) was “* *”.

The values above are taken from US20240279205A1, “NOVEL BENZIMIDAZOLE DERIVATIVE” (Carna Biosciences, Inc., priority 2020, published 2024).
